# Source: article PMC6138628, “Enhanced uptake of gH625 by blood brain barrier compared to liver in vivo: characterization of the mechanism by an in vitro model and implications for delivery” (Scientific Reports, 2018)
# Residues, ends and D or L forms follow the SMILES beside them.
# Tests used:
# [1] = tested on: human neuroblastoma and glioblastoma astrocytoma; parameters: method as in PMID 25792823; conditions: human neuroblastoma and glioblastoma astrocytoma cells; cited from earlier work
# [2] = Tryptophan fluorescence, binding isotherm and partition coefficient; type: physicochemical; conditions: peptide 4 µM, λex 295 nm
# Procedure: Emission spectra of the tryptophan contained in the peptide (4 µM) in the absence or presence of target vesicles were recorded between 300 and 400 nm with λex 295 nm in order to determine the presence of the peptide inside the membrane. To establish the strength of peptide-lipid interaction, LUVs were added to the peptide solution (4 µM) and the fluorescence intensity was recorded as a function of the lipid/peptide molar ratio (L/P), in three to four separate experiments. The results were corrected for the dilution factor. We used an L/P ratio of 200:1. […] F∞ was obtained by extrapolation of a double reciprocal plot of the total peptide fluorescence vs the total lipid concentration in the outer leaflet. The fraction of membrane-bound peptide, fb, was determined by fb = (F − F0)/(F∞ − F0), where F represents the fluorescence of peptide after the addition of the vesicles and F0 represents the fluorescence of the unbound peptide. fb allowed us to calculate the equilibrium concentration of the free peptide in the solution, Cf, and the extent of peptide binding Xb. […]
# The presence of a tryptophan residue in the middle of the sequence of gH625, allowed the evaluation of the degree of peptide penetration into liposomes of different composition. In particular, we compared the fluorescence emission spectra in vesicles mimicking the BBB and the liver with that in buffer. […]
# [3] = Tryptophan quenching by acrylamide; type: physicochemical; conditions: peptide 4 µM, peptide/lipid 1/200, acrylamide up to 0.2 M, λex 295 nm, λem 340 nm
# Procedure: A solution containing 4 µM of gH625 in the absence or presence of LUVs at a peptide/lipid molar ratio of 1/200, was titrated with the water-soluble quencher acrylamide (4 M mother solution). The maximal concentration of acrylamide in the samples is 0.2 M. Fluorescence was measured with λex 295 nm and λem 340 nm[43]. The data were analysed with the Stern-Volmer equation[43], F0/F = 1 + Ksv [Q], where F0 and F represent the fluorescence intensities in the absence and the presence of the quencher (Q), respectively. The Ksv is the Stern-Volmer quenching constant, and is correlated to the accessibility of the tryptophan residue to acrylamide. […] Ksv is thus determined by the amount of non-lipid-associated free peptide as well as the peptide fraction located on the surface of the bilayer.
# The observed changes in the tryptophan emission upon binding to lipid vesicles indicate gH625 insertion into the hydrophobic region of the bilayers. We determined the accessibility of the tryptophan residues of membrane bound peptides towards acrylamide, a neutral, water-soluble quencher, which is unable to penetrate into the hydrophobic core of the lipid bilayer. In fact, tryptophan residues more deeply buried inside the membrane are less strongly quenched.
compound,measurement,setting,value
CC[C@H](C)[C@H](NC(=O)[C@H](CC(C)C)NC(=O)[C@H](C)NC(=O)[C@H](CC(N)=O)NC(=O)[C@H](Cc1ccc(O)cc1)NC(=O)[C@H](Cc1c[nH]cn1)NC(=O)[C@H](C)NC(=O)[C@H](Cc1c[nH]c2ccccc12)NC(=O)[C@H](CCCNC(=N)N)NC(=O)[C@@H](NC(=O)[C@H](CC(C)C)NC(=O)[C@@H](NC(=O)[C@H](CO)NC(=O)[C@H](C)NC(=O)[C@H](CC(C)C)NC(=O)CNC(=O)[C@@H](N)Cc1c[nH]cn1)[C@@H](C)O)[C@@H](C)O)C(=O)N[C@@H](CCCNC(=N)N)C(=O)N[C@@H](C)C(=O)N[C@@H](Cc1ccccc1)C(N)=O [gH625] (H-HGLASTLTRWAHYNALIRAF-NH2),Percentage of uptake,[1],80–90%
same,"Tryptophan fluorescence emission (intensity increase, blue shift): penetration into bilayer",[2]; BBB mimicking LUVs vs buffer,capable of penetrating both lipid bilayers
same,"Tryptophan fluorescence emission (intensity increase, blue shift): penetration into bilayer",[2]; liver mimicking LUVs vs buffer,capable of penetrating both lipid bilayers
same,Stern-Volmer quenching constant (Ksv),[3]; BBB mimicking LUVs,2.05 ± 0.08 M⁻¹
same,Stern-Volmer quenching constant (Ksv),[3]; liver mimicking LUVs,3.04 ± 0.06 M⁻¹
